Ki data for 1 molecule are collected here from US6362216B1, “Compounds which inhibit tryptase activity” (Array Biopharma Inc., priority 1998, dated 2002).

Assay [1] deals with T1, Human Neutrophil Cathepsin G (Homo sapiens, UniProt P08311).
T1 construct: from tissue; host or cells: human neutrophils
T1 sequence (P08311 21-244): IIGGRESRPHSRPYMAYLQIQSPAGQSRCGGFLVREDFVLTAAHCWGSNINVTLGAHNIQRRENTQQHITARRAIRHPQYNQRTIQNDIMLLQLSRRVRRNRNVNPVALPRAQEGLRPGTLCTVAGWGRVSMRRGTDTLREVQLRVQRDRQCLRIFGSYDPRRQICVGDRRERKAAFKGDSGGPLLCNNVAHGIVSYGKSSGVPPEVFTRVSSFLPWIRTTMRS
As to the kind of experiment: Human neutrophil cathepsin G inhibition, N-Suc-Ala-Ala-Pro-Phe-pNA substrate. Type of assay: biochemical. As to conditions: 625 mM Tris-HCl, pH 7.5, 2.5 mM MgCl2, 0.125% Brij 35. On the procedure: (§1) Protease inhibition was assayed according to published procedures with minor modifications using various proteases and specific chromogenic peptide p-nitroanilide substrates. Assays were performed in Costar ultra-low cluster 96-well microtiter plate (Costar Corning Corp., Cambridge Mass.). Each protease was incubated with various concentrations of the test compound for 15 min. at 37° C. or as otherwise indicated, in specific assay buffer, and the residual activity was then measured by addition of the substrate. p-Nitroaniline produced by the proteolysis was determined by measuring the change in absorbance at 405 nm on a SpectraMAX 340 plate reader (Molecular devices, Sunnyvale, Calif.).
(§2) 1. The inhibition constant, Ki is calculated from individual data points using the equation for a tight-binding inhibitor (See Beith, “Proteinase Inhibitors-Proceedings of 2nd Int. Res. Conference”, Fritz, et al. eds., New York, p.4463-4469 (1974)):
(§3) The Ki values are obtained by correcting Ki ′ values for the effect of substrate concentration according to: [formula]
2. Other inhibition data (Ki>>[E]o), the Ki is calculated from using the equations for a competitive inhibitor: [formula] […]
Human Neutrophil Cathepsin G activity was determined by using N-Suc-Ala-Ala-Pro-Phe-pNA in 625 mM Tris-HCl, pH 7.5, 2.5 mM MgCl2, 0.125% Brij 35 (See Groutas et al., Arch. Biochem. Biophys. 294, 144-146 (1992)). […]

The next assay addresses T2, Human lung tryptase.
T2 construct: Human lung tryptase purchased from Cortex Biochem (San Leandro, Calif.) was purified further on a Superdex 200 gel-filtration column
Nature of the assay: Human lung tryptase inhibition, chromogenic GPR-pNA substrate. It counts as biochemical. How it is done:
as §1, §2
vi/vo=[((Ki′+[I]+[E]o)^2−4[I]o[E]o)^½(Ki′+[I]o−[E]o)]/2[E]o
where Ki′ is apparent inhibition constant; vi and vo are the inhibited and uninhibited rates, respectively; [I]o and [E]o are the total concentrations of inhibitor and enzyme, respectively.
[note: [E]o is determined by active site titration of enzyme]
as §3
2. Other inhibition data (Ki>>[E]o), the Ki is calculated from using the equations for a competitive inhibitor: [formula]
IC50 is determined by fitting the individual inhibition data point to Sigmoid or four-parameter curve-fit equations.
Human lung tryptase purchased from Cortex Biochem (San Leandro, Calif.) was purified further on a Superdex 200 gel-filtration column. The active-site concentration of the enzyme was determined by spectrophotometric titration with 4-nitrophenyl 4′-guanidinobenzoate according to Schwartz, et al., J. Immunol., 114, 2304-2311 (1990). Tryptase activity was measured according to the procedures of Schwartz, et al., J. Biol. Chem., 261, 7372-7379 (1986) (See also, Schwartz, L. B., Methods In Enzymology, 244, 88 (1994)) with minor modifications, using Tosyl-Gly-Pro-Arg-p-nitroanilide (“GPR-pNA”, Sigma Chemical Co., St. Louis, Mo., T-1637) as a chromogenic substrate. The reaction was performed in 50 mM Tris-HCl, pH 8.0, containing 150 mM NaCl and 0.02% Triton X-100 at 37° C. in Costar ultra-low cluster 96-well microtiter plates (Costar Corning Corp., Cambridge, Mass.). The amount of pNA produced by tryptase was determined by measuring the change in absorbance at 405 nm on a SpectraMAX 340 plate reader (Molecular devices, Sunnyvale, Calif.). The Km for the substrate was determined by Lineweaver-Burk analysis from initial velocities of substrate hydrolysis. The inhibition assay was carried out in a total volume of 200 μL. Tryptase (30 μL-final concentration 1 nM) was incubated with various concentrations of sample compound (50 μL) to be tested in the above assay buffer for 5 min. The reaction was started by the addition of substrate GPR-pNA (40 μL-final concentration 320 μM), and the residual activity was measured after 15 min. of incubation. The inhibition constant, Ki, was determined by fitting the inhibition data to a two-site competitive binding equation using data analysis program GraphPad PRISM (GraphPad Software, Inc., San Diego, Calif.).
The inhibition constant (Ki) of the test compounds against each proteolytic enzyme was determined according to Zitnik et al., Biochem. Biophys. Res. Commun. 232, 687-697 (1997)).

Molecules are shown by their SMILES. A value given as a limit tells only on which side of the number the result lay.

The term Ki denotes a measure of affinity in units of concentration, obtained from inhibition or displacement. `Cc1cc2cc(CNC(=O)Cc3cc4cc(C(=N)N)ccc4s3)ccc2[nH]1` [drawing 17 Benzthiophene 5-carboxamidine n=1]: the inhibition constant Ki was more than 100000 nM in assay [1]; 41 nM at Human lung tryptase (the 5th table, unit inferred); 41 nM at Human lung tryptase (tryptase 1 nM, GPR-pNA 320 μM, 50 mM Tris-HCl pH 8.0, 37° C.).
